In one experiment the target is T1, HDAC2 (Homo sapiens, UniProt Q92769).
T1 construct: (full length with C-terminal His-tag); His (C); purchased BPS Bioscience Inc. 50002
The experiment is described as follows: HDAC2 enzyme inhibition assay (fluorimetric). The class given is biochemical. The note with it: 1 μM compound; 3 h pre-incubation; recombinant full length HDAC2; read-out: HDAC2 % inh @ 1 μM. As for the experimental part:
(§1) HDAC6 and HDAC2 Enzyme Inhibition Assay
(§2) A fluorimetric assay was used for testing the activity of compounds of the invention against HDAC6 and HDAC2.
(§3) The compounds were dissolved in DMSO. Serial dilutions were prepared in DMSO and then diluted 1:10 in HDAC assay buffer (Tris-buffered solution, BPS Bioscience Inc. #50031). 5 μl of the compound dilution was added to a 50 μl reaction so that the final concentration of DMSO was 1%.
(§4) The compounds were pre-incubated in duplicate at RT for 3 hours in a mixture containing HDAC assay buffer, 5 μg BSA and recombinant HDAC enzyme (see table above). The enzymatic reactions were initiated by the addition of a fluorogenic, acetylated peptide substrate based on a histone protein (BPS Bioscience Inc. #50037) to a final concentration of 10 μM. The enzymatic reaction proceeded for 30 minutes at 37° C. Then, 50 μl of 2× HDAC Developer, which contains peptidase activity and Trichostatin A (BPS Bioscience Inc. #50030) was added and the plate was incubated at RT for an additional 15 minutes. Fluorescence intensity was measured at an excitation of 360 nm and an emission of 460 nm using a Tecan Infinite M1000 microplate reader.
(§5) Trichostatin A (TSA, Selleckchem #S1045) was used as reference inhibitor.
(§6) The fluorescent intensity data were analyzed using the computer software Graphpad Prism (GraphPad Software, San Diego, CA). 100% activity was defined as the fluorescent intensity (Ft) in the absence of the compound. 0% activity was defined as the fluorescent intensity (Fb) in the absence of the enzyme. The percent activity in the presence of each compound was calculated according to the following equation: % activity=(F−Fb)/(Ft−Fb), where F=the fluorescent intensity in the presence of the compound.

Experiment [1] deals with T2, HDAC6 (Homo sapiens, UniProt Q9UBN7).
T2 sequence (Q9UBN7 1-1215): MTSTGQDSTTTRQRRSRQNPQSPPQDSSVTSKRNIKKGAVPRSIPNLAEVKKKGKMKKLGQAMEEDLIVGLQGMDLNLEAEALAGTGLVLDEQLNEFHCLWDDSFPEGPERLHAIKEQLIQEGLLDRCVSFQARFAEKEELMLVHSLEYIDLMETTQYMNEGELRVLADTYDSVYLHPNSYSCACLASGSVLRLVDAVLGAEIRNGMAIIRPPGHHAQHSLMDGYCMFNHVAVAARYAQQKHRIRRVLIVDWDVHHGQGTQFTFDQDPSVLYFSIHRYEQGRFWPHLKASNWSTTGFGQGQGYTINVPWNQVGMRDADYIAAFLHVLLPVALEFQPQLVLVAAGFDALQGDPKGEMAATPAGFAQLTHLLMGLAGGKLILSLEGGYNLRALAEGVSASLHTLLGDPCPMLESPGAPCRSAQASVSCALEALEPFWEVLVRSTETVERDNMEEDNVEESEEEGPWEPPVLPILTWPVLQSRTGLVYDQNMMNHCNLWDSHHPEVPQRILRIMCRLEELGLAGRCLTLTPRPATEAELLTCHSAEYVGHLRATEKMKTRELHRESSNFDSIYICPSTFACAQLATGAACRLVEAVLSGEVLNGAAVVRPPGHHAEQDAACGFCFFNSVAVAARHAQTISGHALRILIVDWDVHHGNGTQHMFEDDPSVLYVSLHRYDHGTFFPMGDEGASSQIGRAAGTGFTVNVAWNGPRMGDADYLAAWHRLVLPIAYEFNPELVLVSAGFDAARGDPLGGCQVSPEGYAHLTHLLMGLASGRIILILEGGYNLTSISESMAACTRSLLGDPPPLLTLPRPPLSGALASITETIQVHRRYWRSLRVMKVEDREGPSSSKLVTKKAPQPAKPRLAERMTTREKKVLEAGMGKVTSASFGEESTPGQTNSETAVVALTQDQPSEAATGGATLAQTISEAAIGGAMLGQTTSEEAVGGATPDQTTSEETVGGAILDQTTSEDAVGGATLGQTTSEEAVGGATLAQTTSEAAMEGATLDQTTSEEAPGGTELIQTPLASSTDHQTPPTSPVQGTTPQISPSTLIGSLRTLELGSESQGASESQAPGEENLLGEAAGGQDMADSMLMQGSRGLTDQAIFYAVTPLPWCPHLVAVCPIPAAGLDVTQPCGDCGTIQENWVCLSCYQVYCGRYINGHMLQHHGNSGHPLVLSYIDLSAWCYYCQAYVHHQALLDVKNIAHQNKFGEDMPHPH
Nature of the experiment: In vitro cell-based assay: acetylation levels of Alpha-Tubulin by Western Blot in MOLP8 cells. Also noted: endogenous in cells; host or cells: MOLP8. Particulars: 18 h, acetyl-alpha-tubulin relative band intensity, ACY-1215 1 μM = 100%. The procedure: In Vitro Cell-Based Assay
In order to determine the cellular activity of HDAC6 upon treatment with HDAC6 inhibitors, acetylation levels of Alpha-Tubulin (a HDAC6-specific substrate) were measured by Western Blot. For this, MOLP8 cells were seeded in 6-well plates at a cell density of 500.000 cells/well and treated with the selected compounds at 5 and 1 μM for 18 h at 37° C. and 5% CO2 in a humidified tissue culture incubator. Consecutively, cell pellets were collected and whole protein extracts prepared using RIPA buffer (SIGMA) supplemented with 1× protease inhibitors (cOmplete mini, Roche). Protein concentration was determined with Bradford's reagent (Bio-Rad) as per manufacturer's instructions, and 7 μg of total protein were loaded into pre-cast 10% NuPAGE Novex gels (Life Technologies). Gels were run in […] (Life Technologies) and proteins were transferred using the iBlot 2 Dry Blotting System (Life Technologies). Blots were subsequently rinsed in distilled water and stained with Ponceau S solution (SIGMA). Blots were then washed in distilled water to remove Ponceau excess and scanned with the Epson Perfection V600 Photo professional Scanner. After this, blots were de-stained and blocked in 5% milk/PBS-Tween 0.1% for 1 h at room temperature followed by incubation with anti-Acetyl-alpha Tubulin (SIGMA cat. #T7451, 1:10.000 dilution) and anti-Beta-actin (SIGMA, cat. #A5316, 1:2.000 dilution) primary antibodies in 5% milk/PBS-T 0.1%, overnight at 4° C. on a shaking platform. After incubation, blots were washed 3 times for 5 minutes each in PBS-Tween 0.5% and incubated with anti-mouse HRP-conjugated secondary antibody (Jackson Immuno Research, cat. #115-035-068) at 1:8.000 in 5% milk/PBS-Tween 0.1%, 1 h at room temperature on a shaking platform. After 3 washes of 5 minutes each with PBS-Tween 0.5% and 1 wash in PBS 1×, blots were developed with ECL Plus (GE Healthcare) and the chemiluminescent reaction imaged with the G:Box Chemi XRQ (Syngene) imaging system. WB and Ponceau images were analysed with ImageJ software, WB band intensities normalized by either total protein or Beta-actin content and made relative to ACY-1215 1 μM (equivalent to 100%). ACY-1215 is a HDAC6 inhibitor, and is also known as ricolinostat, with chemical name 2-(diphenylamino)-N-[7-(hydroxyamino)-7-oxoheptyl]-5-pyrimidinecarboxamide. Percentage of band intensities was classified as follows: […]
In general terms: A western blot detects proteins with antibodies after separation by electrophoresis.

In experiment [2] the target is T2, HDAC6. Nature of the experiment: HDAC6 enzyme inhibition assay (fluorimetric). The note with it: 1 μM compound; 3 h pre-incubation; recombinant full length HDAC6; read-out: HDAC6 % inh @ 1 μM. The format is biochemical. The procedure:
as §1, §2, §3, §4, §5, §6

The source of these data is US12668591B2, “1,2,4-oxadiazole derivatives as histone deacetylase 6 inhibitors” (Oryzon Genomics, S.A., priority 2017, dated 2026).

T1 sequence (Q92769 whole entry): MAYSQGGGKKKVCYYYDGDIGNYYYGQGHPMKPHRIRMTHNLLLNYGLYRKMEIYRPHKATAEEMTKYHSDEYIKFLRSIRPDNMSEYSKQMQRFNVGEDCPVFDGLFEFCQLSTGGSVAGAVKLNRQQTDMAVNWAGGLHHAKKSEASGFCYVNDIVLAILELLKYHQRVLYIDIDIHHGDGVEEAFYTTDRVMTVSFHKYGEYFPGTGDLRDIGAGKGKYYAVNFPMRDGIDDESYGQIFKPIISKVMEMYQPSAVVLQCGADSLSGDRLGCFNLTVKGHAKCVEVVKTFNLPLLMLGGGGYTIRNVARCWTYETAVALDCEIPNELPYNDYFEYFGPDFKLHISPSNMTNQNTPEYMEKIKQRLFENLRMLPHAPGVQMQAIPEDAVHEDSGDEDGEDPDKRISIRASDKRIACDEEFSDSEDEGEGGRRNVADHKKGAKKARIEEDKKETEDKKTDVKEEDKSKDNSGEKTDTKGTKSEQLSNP

Turning to `FC1(F)CCN(CCn2ccc3cnc(-c4cc(-c5noc(C(F)(F)F)n5)ccn4)cc32)CC1` [Example 1ab, 3-(2-(1-(2-(4,4-Difluoropiperidin-1-yl)ethyl)-1H-pyrrolo[3,2-c]pyridin-6-yl)pyridin-4-yl)-5-(trifluoromethyl)-1,2,4-oxadiazole], at HDAC2, the inhibition at 1 µM is 38%. In addition, at HDAC6 [1], the “Cellular activity @1 uM” value is reported as “++ (150-300)” and the “Cellular activity @5 uM” value is recorded as “++ (150-300)”. Besides, the inhibition at 1 µM at HDAC6 [2] is 93%.
Take `CN1CCC(C(=O)Nc2ccc(-c3cc(-c4noc(C(F)(F)F)n4)ccn3)nc2)CC1` [Example 1ac, 1-Methyl-N-(4′-(5-(trifluoromethyl)-1,2,4-oxadiazol-3-yl)-[2,2′-bipyridin]-5-yl)piperidine-4-carboxamide]: the values for the inhibition at 1 µM on HDAC2 and at HDAC6 [2] were 18% and 78%, respectively. The “Cellular activity @1 uM” value at HDAC6 [1] is given as “+ (50-150)”. Further, the “Cellular activity @5 uM” value on HDAC6 [1] is on record as “++ (150-300)”.
Consider `O=C(CC1CCC1)Nc1ccnc(-c2cc(-c3noc(C(F)(F)F)n3)ccn2)c1` [Example 1ae, 2-Cyclobutyl-N-(4′-(5-(trifluoromethyl)-1,2,4-oxadiazol-3-yl)-[2,2′-bipyridin]-4-yl)acetamide], for which the values for the inhibition at 1 µM at HDAC2 and on HDAC6 [2] were 5% and 85%, respectively. The “Cellular activity @1 uM” value at HDAC6 [1] was “+ (50-150)”. Further, the “Cellular activity @5 uM” value at HDAC6 [1] is “+ (50-150)”.
Consider `CCCn1cc(CO)c2cc(-c3cc(-c4noc(C(F)(F)F)n4)ccn3)ncc21` [Example 1ah, (1-Propyl-5-(4-(5-(trifluoromethyl)-1,2,4-oxadiazol-3-yl)pyridin-2-yl)-1H-pyrrolo[2,3-c]pyridin-3-yl)methanol], for which, at HDAC2, the inhibition at 1 µM is 35%. Besides, at HDAC6 [1], the “Cellular activity @1 uM” value is “+ (50-150)” and the “Cellular activity @5 uM” value is “++ (150-300)”. Further, on HDAC6 [2], the inhibition at 1 µM turned out to be 96%.
On the same counts, the results for `FC(F)(F)c1nc(-c2ccnc(-c3cc4[nH]ccc4cn3)c2)no1` [Example 1ak, 3-(2-(1H-Pyrrolo[3,2-c]pyridin-6-yl)pyridin-4-yl)-5-(trifluoromethyl)-1,2,4-oxadiazole] are 14%, “+ (50-150)”, “++ (150-300)” and 90%.
Consider `FC(F)(F)c1nc(-c2ccnc(-c3cc4c(ccn4Cc4ccncc4)cn3)c2)no1` [Example 1al, 3-(2-(1-(Pyridin-4-ylmethyl)-1H-pyrrolo[3,2-c]pyridin-6-yl)pyridin-4-yl)-5-(trifluoromethyl)-1,2,4-oxadiazole], for which, on HDAC2, the inhibition at 1 µM was found to be 31%. Also, at HDAC6 [1], the “Cellular activity @1 uM” value was “++ (150-300)” and the “Cellular activity @5 uM” value is listed as “++ (150-300)”. Further, the inhibition at 1 µM on HDAC6 [2] was determined as 92%.
With `Cn1cc(-c2cn[nH]c2)c2cc(-c3cc(-c4noc(C(F)(F)F)n4)ccn3)ncc21` [Example 1ap, 3-(2-(1-Methyl-3-(1H-pyrazol-4-yl)-1H-pyrrolo[2,3-c]pyridin-5-yl)pyridin-4-yl)-5-(trifluoromethyl)-1,2,4-oxadiazole], at HDAC2, the inhibition at 1 µM stood at 6%. In addition, on HDAC6 [1], the “Cellular activity @1 uM” value is on record as “+ (50-150)” and the “Cellular activity @5 uM” value is given as “++ (150-300)”. On HDAC6 [2], the inhibition at 1 µM was 86%.
In the case of `CCCn1cc(CN2CCOCC2)c2cc(-c3cc(-c4noc(C(F)(F)F)n4)ccn3)ncc21` [Example 1h, 4-((1-Propyl-5-(4-(5-(trifluoromethyl)-1,2,4-oxadiazol-3-yl)pyridin-2-yl)-1H-pyrrolo[2,3-c]pyridin-3-yl)methyl)morpholine], at HDAC6 [1], the “Cellular activity @1 uM” value was “+ (50-150)” and the “Cellular activity @5 uM” value is “++ (150-300)”. Further, the inhibition at 1 µM at HDAC6 [2] amounted to 96%.
With `CCN(CC)CCCOc1cnc(-c2cc(-c3noc(C(F)(F)F)n3)ccn2)nc1` [Example 1m, N,N-Diethyl-3-(2-(4-(5-(trifluoromethyl)-1,2,4-oxadiazol-3-yl)pyridin-2-yl)pyrimidin-5-yloxy)propan-1-amine], at HDAC6 [1], the “Cellular activity @1 uM” value is recorded as “− (<50)” and the “Cellular activity @5 uM” value is “+ (50-150)”. Moreover, the inhibition at 1 µM on HDAC6 [2] worked out at 81%.
On the same counts, the results for `FC(F)(F)c1nc(-c2ccnc(-c3cc4c(ccn4CC4CCOCC4)cn3)c2)no1` [Example 1r, 3-(2-(1-((Tetrahydro-2H-pyran-4-yl)methyl)-1H-pyrrolo[3,2-c]pyridin-6-yl)pyridin-4-yl)-5-(trifluoromethyl)-1,2,4-oxadiazole] are “++ (150-300)”, “++ (150-300)” and 92%.
On to `FC(F)(F)c1nc(-c2ccnc(-c3cc(OCCN4CCOCC4)ccn3)c2)no1` [Example 1t, 4-(2-((4′-(5-(Trifluoromethyl)-1,2,4-oxadiazol-3-yl)-[2,2′-bipyridin]-4-yl)oxy)ethyl)morpholine], for which, on HDAC6 [1], the “Cellular activity @1 uM” value is reported as “− (<50)” and the “Cellular activity @5 uM” value was “+ (50-150)”. Also, the inhibition at 1 µM on HDAC6 [2] worked out at 88%.
